Laboratory results taken from US20260297081A1, “COMPOUNDS AND METHODS OF TREATING CANCERS” (Cullgen Inc., priority 2023, published 2026).

What was measured:
[1] = system: Calu-1 cells; experiment: Anti-proliferation (viability) of NSCLC Calu-1 cells, 3 days (Table 7, FIG. 2B); type: cell-based; conditions: Homo sapiens, 72 h; Calu-1 cells, 3 days, 10-point serial dilution; read-out: GI IC50 in Calu-1
Method in brief: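 Seed cells, add compound in ten serially diluted concentrations, then incubate (Calu-1: 3 days; T47D: 6 days) before measuring viability.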

[2] = system: MCF7 cells; experiment: Anti-proliferation (viability) of MCF7 cells (Table 7, FIG. 2B); type: cell-based; conditions: Homo sapiens, MCF7, MCF7 cells, 3-6 days, 10-point serial dilution; read-out: GI IC50 in MCF-7

CC(=O)c1c(C)c2cnc(Nc3ccc(N4CCN(CC(=O)N[C@H]5CC[C@H](CNc6nc(NC(C)C)ccc6C(=O)Nc6cn(C)c(C7CC7)n6)CC5)CC4)cn3)nc2n(C2CCCC2)c1=O [CPD-275, 2-(((trans-4-(2-(4-(6-((6-acetyl-8-cyclopentyl-5-methyl-7-oxo-7,8-dihydropyrido[2,3-d]pyrimidin-2-yl)amino)pyridin-3-yl)piperazin-1-yl)acetamido)cyclohexyl)methyl)amino)-N-(2-cyclopropyl-1-methyl-1H-imidazol-4-yl)-6-(isopropylamino)nicotinamide]
IC50 [1]: ≥ 50 nM | IC50 [2]: > 100 nM

[2H]C([2H])([2H])Nc1ccc(C(=O)Nc2cn(C)c(C3CC3)n2)c(NC[C@H]2CC[C@H](NC(=O)CN3CCN(c4ccc(Nc5ncc6c(C)c(C(C)=O)c(=O)n(C7CCCC7)c6n5)nc4)CC3)CC2)n1 [CPD-276, 2-(((trans-4-(2-(4-(6-((6-acetyl-8-cyclopentyl-5-methyl-7-oxo-7,8-dihydropyrido[2,3-d]pyrimidin-2-yl)amino)pyridin-3-yl)piperazin-1-yl)acetamido)cyclohexyl)methyl)amino)-N-(2-cyclopropyl-1-methyl-1H-imidazol-4-yl)-6-((methyl-d3)amino)nicotinamide]
IC50 [1]: ≥ 50 nM | IC50 [2]: > 100 nM

CC(=O)c1c(C)c2cnc(Nc3ccc(N4CCN(CC(=O)NCC5CC(Nc6nc(NC(C)C)ccc6C(=O)Nc6cn(C)c(C7CC7)n6)C5)CC4)cn3)nc2n(C2CCCC2)c1=O (centres unmarked) [CPD-277, 2-((3-((2-(4-(6-((6-acetyl-8-cyclopentyl-5-methyl-7-oxo-7,8-dihydropyrido[2,3-d]pyrimidin-2-yl)amino)pyridin-3-yl)piperazin-1-yl)acetamido)methyl)cyclobutyl)amino)-N-(2-cyclopropyl-1-methyl-1H-imidazol-4-yl)-6-(isopropylamino)nicotinamide]
IC50 [1]: ≤ 10 nM | IC50 [2]: > 100 nM

[2H]C([2H])([2H])Nc1ccc(C(=O)Nc2cn(C)c(C3CC3)n2)c(NC2CC(CNC(=O)CN3CCN(c4ccc(Nc5ncc6c(C)c(C(C)=O)c(=O)n(C7CCCC7)c6n5)nc4)CC3)C2)n1 (centres unmarked) [CPD-278, 2-((3-((2-(4-(6-((6-acetyl-8-cyclopentyl-5-methyl-7-oxo-7,8-dihydropyrido[2,3-d]pyrimidin-2-yl)amino)pyridin-3-yl)piperazin-1-yl)acetamido)methyl)cyclobutyl)amino)-N-(2-cyclopropyl-1-methyl-1H-imidazol-4-yl)-6-((methyl-d3)amino)nicotinamide]
IC50 [1]: 10 to 50 nM | IC50 [2]: > 100 nM

CC(=O)c1c(C)c2cnc(Nc3ccc(N4CCN(CC(=O)N5CCC(Nc6nc(NC(C)C)ccc6C(=O)Nc6cn(C)c(C7CC7)n6)CC5)CC4)cn3)nc2n(C2CCCC2)c1=O [CPD-279, 2-((1-(2-(4-(6-((6-acetyl-8-cyclopentyl-5-methyl-7-oxo-7,8-dihydropyrido[2,3-d]pyrimidin-2-yl)amino)pyridin-3-yl)piperazin-1-yl)acetyl)piperidin-4-yl)amino)-N-(2-cyclopropyl-1-methyl-1H-imidazol-4-yl)-6-(isopropylamino)nicotinamide]
IC50 [1]: 10 to 50 nM | IC50 [2]: > 100 nM

CC(=O)c1c(C)c2cnc(Nc3ccc(N4CCN(CC(=O)NC5CC(Nc6nc(NC(C)C)ccc6C(=O)Nc6ccc(N(C)C)nn6)C5)CC4)cn3)nc2n(C2CCCC2)c1=O (centres unmarked) [CPD-280, 2-((3-(2-(4-(6-((6-acetyl-8-cyclopentyl-5-methyl-7-oxo-7,8-dihydropyrido[2,3-d]pyrimidin-2-yl)amino)pyridin-3-yl)piperazin-1-yl)acetamido)cyclobutyl)amino)-N-(6-(dimethylamino)pyridazin-3-yl)-6-(isopropylamino)nicotinamide]
IC50 [1]: ≤ 10 nM | IC50 [2]: 50 to 100 nM

CNc1ccc(C(=O)Nc2cc(C)on2)c(NC2CC(CNC(=O)CN3CCN(c4ccc(Nc5ncc6c(C)c(C(C)=O)c(=O)n(C7CCCC7)c6n5)nc4)CC3)C2)n1 (centres unmarked) [CPD-281, 2-((3-((2-(4-(6-((6-acetyl-8-cyclopentyl-5-methyl-7-oxo-7,8-dihydropyrido[2,3-d]pyrimidin-2-yl)amino)pyridin-3-yl)piperazin-1-yl)acetamido)methyl)cyclobutyl)amino)-6-(methylamino)-N-(5-methylisoxazol-3-yl)nicotinamide]
IC50 [1]: 10 to 50 nM | IC50 [2]: > 100 nM

[2H]C([2H])([2H])Nc1ccc(C(=O)Nc2cc(C)on2)c(NC2CC(CNC(=O)CN3CCN(c4ccc(Nc5ncc6c(C)c(C(C)=O)c(=O)n(C7CCCC7)c6n5)nc4)CC3)C2)n1 (centres unmarked) [CPD-283, 2-((3-((2-(4-(6-((6-acetyl-8-cyclopentyl-5-methyl-7-oxo-7,8-dihydropyrido[2,3-d]pyrimidin-2-yl)amino)pyridin-3-yl)piperazin-1-yl)acetamido)methyl)cyclobutyl)amino)-6-((methyl-d3)amino)-N-(5-methylisoxazol-3-yl)nicotinamide]
IC50 [1]: ≤ 10 nM | IC50 [2]: 50 to 100 nM

CC(=O)c1c(C)c2cnc(Nc3ccc(N4CCN(CC(=O)NC5CCC(Nc6nc(NC(C)C)ccc6C(=O)Nc6cn(C)c(C7CC7)n6)C5)CC4)cn3)nc2n(C2CCCC2)c1=O (centres unmarked) [CPD-284, 2-((3-(2-(4-(6-((6-acetyl-8-cyclopentyl-5-methyl-7-oxo-7,8-dihydropyrido[2,3-d]pyrimidin-2-yl)amino)pyridin-3-yl)piperazin-1-yl)acetamido)cyclopentyl)amino)-N-(2-cyclopropyl-1-methyl-1H-imidazol-4-yl)-6-(isopropylamino)nicotinamide]
IC50 [1]: ≤ 10 nM | IC50 [2]: > 100 nM

[2H]C([2H])([2H])Nc1ccc(C(=O)Nc2cn(C)c(C3CC3)n2)c(NC2CCC(NC(=O)CN3CCN(c4ccc(Nc5ncc6c(C)c(C(C)=O)c(=O)n(C7CCCC7)c6n5)nc4)CC3)C2)n1 (centres unmarked) [CPD-285, 2-((3-(2-(4-(6-((6-acetyl-8-cyclopentyl-5-methyl-7-oxo-7,8-dihydropyrido[2,3-d]pyrimidin-2-yl)amino)pyridin-3-yl)piperazin-1-yl)acetamido)cyclopentyl)amino)-N-(2-cyclopropyl-1-methyl-1H-imidazol-4-yl)-6-((methyl-d3)amino)nicotinamide]
IC50 [1]: 10 to 50 nM | IC50 [2]: > 100 nM

CC(=O)c1c(C)c2cnc(Nc3ccc(N4CCN(CC(=O)NC5CC6(C5)CC(Nc5cc(C)ccc5C(=O)Nc5cc(C)on5)C6)CC4)cn3)nc2n(C2CCCC2)c1=O (centres unmarked) [CPD-286, 2-((6-(2-(4-(6-((6-acetyl-8-cyclopentyl-5-methyl-7-oxo-7,8-dihydropyrido[2,3-d]pyrimidin-2-yl)amino)pyridin-3-yl)piperazin-1-yl)acetamido)spiro[3.3]heptan-2-yl)amino)-4-methyl-N-(5-methylisoxazol-3-yl)benzamide]
IC50 [1]: ≥ 50 nM | IC50 [2]: > 100 nM

[2H]C([2H])([2H])Nc1ccc(C(=O)Nc2cn(C)c(C3CC3)n2)c(NC2CC(NC(=O)N3CCN(c4ccc(Nc5ncc6c(C)c(C(C)=O)c(=O)n(C7CCCC7)c6n5)nc4)CC3)C2)n1 (centres unmarked) [CPD-287, 4-(6-((6-acetyl-8-cyclopentyl-5-methyl-7-oxo-7,8-dihydropyrido[2,3-d]pyrimidin-2-yl)amino)pyridin-3-yl)-N-(3-((3-((2-cyclopropyl-1-methyl-1H-imidazol-4-yl)carbamoyl)-6-((methyl-d3)amino)pyridin-2-yl)amino)cyclobutyl)piperazine-1-carboxamide]
IC50 [1]: ≥ 50 nM | IC50 [2]: > 100 nM

CC(=O)c1c(C)c2cnc(Nc3ccc(N4CCN(CC(=O)NC5CC(Nc6nc(NC(C)C)ccc6C(=O)Nc6cn(C)c(C7CC7)n6)C5)CC4)cn3)nc2n(C2CCCC2)c1=O (centres unmarked) [CPD-288, 2-((3-(2-(4-(6-((6-acetyl-8-cyclopentyl-5-methyl-7-oxo-7,8-dihydropyrido[2,3-d]pyrimidin-2-yl)amino)pyridin-3-yl)piperazin-1-yl)acetamido)cyclobutyl)amino)-N-(2-cyclopropyl-1-methyl-1H-imidazol-4-yl)-6-(isopropylamino)nicotinamide]
IC50 [1]: ≥ 50 nM | IC50 [2]: > 100 nM

CC(=O)c1c(C)c2cnc(Nc3ccc(N4CCN(C(=O)NC5CC(Nc6nc(NC(C)C)ccc6C(=O)Nc6cn(C)c(C7CC7)n6)C5)CC4)cn3)nc2n(C2CCCC2)c1=O (centres unmarked) [CPD-289, 4-(6-((6-acetyl-8-cyclopentyl-5-methyl-7-oxo-7,8-dihydropyrido[2,3-d]pyrimidin-2-yl)amino)pyridin-3-yl)-N-(3-((3-((2-cyclopropyl-1-methyl-1H-imidazol-4-yl)carbamoyl)-6-(isopropylamino)pyridin-2-yl)amino)cyclobutyl)piperazine-1-carboxamide]
IC50 [1]: ≥ 50 nM | IC50 [2]: > 100 nM

CC(=O)c1c(C)c2cnc(Nc3ccc(N4CC5(CN(CCC(=O)N6CCC(Nc7nc(NC(C)C)ccc7C(=O)Nc7ccc(N(C)C)nn7)CC6)C5)C4)cn3)nc2n(C2CCCC2)c1=O [CPD-454, 2-((1-(3-(6-(6-((6-acetyl-8-cyclopentyl-5-methyl-7-oxo-7,8-dihydropyrido[2,3-d]pyrimidin-2-yl)amino)pyridin-3-yl)-2,6-diazaspiro[3.3]heptan-2-yl)propanoyl)piperidin-4-yl)amino)-N-(6-(dimethylamino)pyridazin-3-yl)-6-(isopropylamino)nicotinamide]
IC50 [1]: 10 to 50 nM | IC50 [2]: > 100 nM

CC(=O)c1c(C)c2cnc(Nc3ccc(N4CC5(CN(CCC(=O)N6CC7(CC(Nc8nc(NC(C)C)ccc8C(=O)Nc8ccc(N(C)C)nn8)C7)C6)C5)C4)cn3)nc2n(C2CCCC2)c1=O [CPD-455, 2-((2-(3-(6-(6-((6-acetyl-8-cyclopentyl-5-methyl-7-oxo-7,8-dihydropyrido[2,3-d]pyrimidin-2-yl)amino)pyridin-3-yl)-2,6-diazaspiro[3.3]heptan-2-yl)propanoyl)-2-azaspiro[3.3]heptan-6-yl)amino)-N-(6-(dimethylamino)pyridazin-3-yl)-6-(isopropylamino)nicotinamide]
IC50 [1]: ≤ 10 nM | IC50 [2]: < 50 nM
